Source: patent US6713638B2, “2-amino-3-aroyl-4,5 alkylthiophenes: agonist allosteric enhancers at human A1 adenosine receptors” (priority 2001, dated 2004)
“Also recorded” adds a separate entry of the source.

Key:
[1] = biological target: T1, hA1AR (Homo sapiens, UniProt P30542); test: Assay of AE (allosteric enhancer) activity: slowing of 125I-ABA dissociation from the A1AR-G protein ternary complex; format: binding; details: CHO-K1 membranes; for AE Score, %: 0.1 mM final AE, specifically bound 125I-ABA remaining after 10 minutes of dissociation, Mean ± SEM (N = 3); for AE activity (in words): hA1AR
T1 construct: expressed in transfected cells; membranes
T1 sequence (P30542 1-326): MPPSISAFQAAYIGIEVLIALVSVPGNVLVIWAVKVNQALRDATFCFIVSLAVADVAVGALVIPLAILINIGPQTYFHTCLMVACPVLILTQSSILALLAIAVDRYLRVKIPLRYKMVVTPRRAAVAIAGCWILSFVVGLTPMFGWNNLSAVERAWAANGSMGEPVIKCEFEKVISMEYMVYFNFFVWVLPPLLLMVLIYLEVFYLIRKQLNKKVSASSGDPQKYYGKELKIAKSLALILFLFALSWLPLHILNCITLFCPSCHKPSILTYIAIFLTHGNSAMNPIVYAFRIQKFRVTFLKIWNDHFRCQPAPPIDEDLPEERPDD
Text: The allosteric enhancer (AE) activity was studied at the human A1AR (hA1AR) of a panel of compounds consisting of nine 2-amino-3-aroylthiophenes, (3a-i), eight 2-amino-3-benzoyl-4,5-dimethylthiophenes (13a-h), […] 3-aroyl-2-carboxy-4,5-dimethylthiophenes, (17a-e), ten 2-amino-3-benzoyl-5,6-ihydro-4H-cyclopenta[b]thiophenes, (19a-I), fourteen 2-amino-3-benzoyl-4,5,6,7-tetrahyd robenzo-[b]thiophenes, (20a-n), and fifteen 2-amino-3-benzoyl-5,6,7,8-tetrahydro-4H-cyclohepta[b]thiophenes, (21a-o). An in vitro assay employing the A1AR agonist ^125I-N^6-aminobenzyladenosine (^125I-ABA) and membranes from CHO-K1 cells stably expressing the hA1AR measured, as an index of AE activity, the ability of a candidate AE to slow the dissociation of the radioligand from the A1AR-G protein ternary complex.
The assay of AE activity consisted of three phases: formation of the ^125I-ABA-A1AR-G protein ternary complex; binding of the AE to the allosteric site, and dissociation of the complex by adding a combination of an A1AR antagonist (100 μM cyclopentyltheophylline) and 50 µM GTPγS. This procedure detects only AE activity since phase 3 (dissociation) is affected only by the allosteric activity of the test compound and is not affected by competitive antagonist activity. GTPγS is added to accelerate the dissociation process. […] The assay employed membranes from CHO-K1 cells stably expressing the hA1AR. For agonist binding to equilibrium, the incubation mixture consisted of 10 mM HEPES, pH 7.2, containing 0.5 mM MgCl2, 1 U/mL adenosine deaminase, 0.5 nM ^125I-ABA and 10 μg of membrane protein in a final volume of 100 μL. This phase of the assay was allowed to proceed to equilibrium (>90 minutes) at room temperature. At that point phase 2 was initiated by adding 50 μL of a 0.3 mM solution (0.1 mM final) of a candidate AE or DMSO vehicle to rapidly occupy the allosteric site. Stock solutions of AEs (10 mM) were prepared in DMSO. Five minutes later phase 3 was initiated by the addition of 50 μL of a solution containing 400 μM 8-cyclopentyltheophylline and 200 μM GTPγS. Ten minutes later, residual radioligand bound to Aireceptors was trapped on Whatman GF/C glass fiber filters using a Brandel cell harvester, washed 3 times over a 20 second interval and counted in a γ-counter. The percentage of specifically bound agonist remaining after 10 minutes of dissociation was used to calculate the “score” of AE activity:
AE activity score=100×(B−Bo)/(Beq−Bo)
Where B=residual binding (cpm) bound at the end of 10 minutes of dissociation in the presence of an AE, Bo=residual binding (cpm) at the end of 10 minutes of dissociation in the absence of an AE, and Beq=cpm bound at the end of phase 2. A compound with no AE activity has a score of 0 in this assay. An AE which completely arrests agonist dissociation will have a score of 100.

[2] = biological target: T2, A1AR (Homo sapiens, UniProt P30542); test: A1AR antagonistic activity: competition with equilibrium binding of [3H]CPX; details: 100 μM; N = 3
T2 sequence (P30542 1-326): T1 sequence (P30542 1-326)
Text: Several of the candidate AEs had substantial antagonistic activity. However, the AE and antagonist activities are unrelated (r^2=0.057, n=28).

| Compound | AE Score, % [1] [%] | Antagonist activity, % (% inhibition of specific equilibrium binding of [3H]8-cyclopentyl-1,3-dipropylxanthine) [2] [%] | AE activity (in words) [1] |
| --- | --- | --- | --- |
| Nc1sc2c(c1C(=O)c1cccc(Cl)c1)CCCC2 [Compound 20d] | 70 ± 9 | 2 | – |
| Cc1ccc(C(=O)c2c(N)sc3c2CCCC3)cc1 [Compound 20j] | 19 ± 7 | 41 | – |
| Cc1sc(N)c(C(=O)c2cccc(F)c2)c1C [Compound 13b] | 0 | – | – |
| Nc1sccc1C(=O)c1ccc(F)cc1 [Compound 3e] | 0 | – | – |
| Nc1sccc1C(=O)c1ccc(Cl)c(Cl)c1 [Compound 3h] | 1.7 ± 0.8 | – | – |
| Cc1sc(C(=O)O)c(C(=O)c2ccc(-c3ccccc3)cc2)c1C [Compound 17c] | 0 | – | – |
| Nc1sc2c(c1C(=O)c1cccc(Br)c1)CCCCC2 [Compound 21d] | 78 ± 2.6 | 12 | – |
| Nc1sc2c(c1C(=O)c1ccccc1)CCC2 [Compound 19b] | 20 ± 3.6 | 63 | – |
| Nc1sccc1C(=O)c1cccc(F)c1 [Compound 3b] | 0 | – | – |
| Nc1sc2c(c1C(=O)c1ccc(F)cc1)CCC2 [Compound 19e] | 68 ± 1 | 36 | – |
| Nc1sc2c(c1C(=O)c1ccccc1)CCCCC2 [Compound 21b] | 13 ± 3.8 | 0 | – |
| Cc1sc(N)c(C(=O)c2ccccc2)c1C [Compound 13a, (2-amino-4,5-dimethyl-thiophen-3-yl)(phenyl)methanone] | 9 | – | – |
| Nc1sc2c(c1C(=O)c1cccc(I)c1)CCCCC2 [Compound 21e] | 86 ± 9 | – | – |
| Nc1sc2c(c1C(=O)c1ccc(I)cc1)CCCCC2 [Compound 21i] | 96 ± 4.7 | 11 | – |
| Nc1sc2c(c1C(=O)c1ccc(C3CCCCC3)cc1)CCCC2 [Compound 20m] | 99 ± 6 | 45 | – |
| 3-benzoyl-4,5-dimethylthiophene-2-carboxylic acid [Compound 17a] | 0 | – | – |
| Cc1cccc(C(=O)c2c(N)sc(C)c2C)c1 [Compound 13e] | 18 ± 0.5 | – | – |
| Nc1sccc1C(=O)c1ccc(Cl)cc1 [Compound 3f] | 0 | – | – |
| Cc1sc2c(c1C)C(c1cccc(F)c1)=Nc1sc(C)c(C)c1C(c1cccc(F)c1)=N2 [Compound 14, 4,9-bis-(3-fluorophenyl)-2,3,7,8-tetramethyl-1,6-dithia-5,10-diaza-dicyclopenta[a,e]-cyclooctene] | – | – | lacked AE activity |
| Nc1sc2c(c1C(=O)c1ccc(Br)cc1)CCC2 [Compound 19g] | 70 ± 7 | – | – |
| COc1cccc(C(=O)c2c(N)sc3c2CCCCC3)c1 [Compound 21j] | 99 ± 3.1 | 19 | – |
| Nc1sc2c(c1C(=O)c1cccc(Cl)c1)CCC2 [Compound 19c] | 16 ± 2 | – | – |
| Nc1sc2c(c1C(=O)c1ccc(I)cc1)CCCC2 [Compound 20i] | 86 ± 13 | 31 | – |

| Compound | AE Score, % [1] [%] | Antagonist activity, % (% inhibition of specific equilibrium binding of [3H]8-cyclopentyl-1,3-dipropylxanthine) [2] [%] | AE activity (in words) [1] |
| --- | --- | --- | --- |
| Cc1sc(N)c(C(=O)c2cccc(-c3ccccc3)c2)c1C [Compound 13g] | 12 ± 1.9 | – | – |
| COc1ccc(C(=O)c2c(N)sc3c2CCCCC3)cc1 [Compound 21k] | 85 ± 10 | – | – |
| Nc1sc2c(c1C(=O)c1ccc(Br)cc1)CCCC2 [Compound 20h] | 83 ± 5 | 56 | – |
| Nc1sc2c(c1C(=O)c1ccc(Cl)cc1)CCCCC2 [Compound 21g] | 65 ± 6.7 | – | – |
| Nc1sc2c(c1C(=O)c1cccc(Cl)c1)CCCCC2 [Compound 21c] | 65 ± 8 | 9 | – |
| CCOC(=O)c1c(N)sc2c1CCC2 [Compound 19a] | 0.4 ± 0.1 | 72 | did not support AE activity; also recorded: None of the cycloalkylthiophenes having a 3-carboxyethyl substituent, namely, 19a, 20a and 21a, was active |
| Nc1sc2c(c1C(=O)c1ccc(F)cc1)CCCC2 [Compound 20f] | 17 ± 3 | 51 | – |
| Cc1sc(N)c(C(=O)c2cccc(Cl)c2)c1C [Compound 13c] | 14 ± 1 | – | – |
| Nc1sc2c(c1C(=O)c1ccc3ccccc3c1)CCCC2 [Compound 20n] | 86 ± 1 | – | – |
| Nc1sc2c(c1C(=O)c1ccc(F)cc1)CCCCC2 [Compound 21f] | 22 ± 2.7 | – | – |
| CCOC(=O)c1c(N)sc2c1CCCCC2 [Compound 21a] | 0.3 ± 0.01 | 41 | did not support AE activity; also recorded: None of the cycloalkylthiophenes having a 3-carboxyethyl substituent, namely, 19a, 20a and 21a, was active |
| N#Cc1ccc(C(=O)c2c(N)sc3c2CCCC3)cc1 [Compound 20k] | 19 ± 0.9 | 19 | excellent activity |
| Cc1sc(N)c(C(=O)c2cccc(Br)c2)c1C [Compound 13d] | 16 ± 4 | – | – |
| Nc1sc2c(c1C(=O)c1ccc(Cl)cc1)CCC2 [Compound 19f] | 22 ± 4 | 40 | – |
| Nc1sc2c(c1C(=O)c1ccc(-c3ccccc3)cc1)CCC2 [Compound 19h] | 62 ± 5 | 12 | – |
| Nc1sccc1C(=O)c1ccc(Br)cc1 [Compound 3g] | 0.8 ± 0.3 | – | – |
| Nc1sccc1C(=O)c1cccc(Br)c1 [Compound 3d] | 0.2 ± 0.03 | – | – |
| Nc1sccc1C(=O)c1cccc(Cl)c1 [Compound 3c] | 0 | – | – |
| Nc1sccc1C(=O)c1ccc2ccccc2c1 [Compound 3i] | 3.2 ± 1.8 | – | – |
| Cc1sc(C(=O)O)c(C(=O)c2cccc(C(F)(F)F)c2)c1C [Compound 17b] | 0 | – | – |
| Nc1sc2c(c1C(=O)c1cccc(Br)c1)CCCC2 [Compound 20e] | 49 ± 1 | – | – |
| Cc1cc(C)c(C(=O)c2c(N)sc(C)c2C)c(C)c1 [Compound 13h] | 0 | – | – |
